Results on one molecule are retold here after publication PMC5466588 (Redox Biology, 2017).

Test in all cases: Di-E-GSSG fluorescent reductase assay
What all share (assay type): biochemical

One assay deals with T1, ERp57 (Homo sapiens, UniProt P30101).
T1 sequence (P30101 25-505): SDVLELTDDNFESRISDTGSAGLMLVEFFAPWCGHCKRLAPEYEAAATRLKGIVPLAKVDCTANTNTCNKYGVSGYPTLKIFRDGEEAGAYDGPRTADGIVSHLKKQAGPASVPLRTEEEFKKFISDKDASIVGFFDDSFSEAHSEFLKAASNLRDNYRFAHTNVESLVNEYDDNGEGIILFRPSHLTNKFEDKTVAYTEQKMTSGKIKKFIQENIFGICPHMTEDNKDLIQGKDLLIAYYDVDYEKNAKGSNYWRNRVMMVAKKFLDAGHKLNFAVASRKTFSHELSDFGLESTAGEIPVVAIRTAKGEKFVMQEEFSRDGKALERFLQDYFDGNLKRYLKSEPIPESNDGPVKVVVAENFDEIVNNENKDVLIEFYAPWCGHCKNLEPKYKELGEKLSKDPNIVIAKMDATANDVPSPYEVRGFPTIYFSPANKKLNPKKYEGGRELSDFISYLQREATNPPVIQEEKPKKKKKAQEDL

The target of the next assay is T2, ERp72 (Homo sapiens, UniProt P13667).
T2 sequence (P13667 21-645): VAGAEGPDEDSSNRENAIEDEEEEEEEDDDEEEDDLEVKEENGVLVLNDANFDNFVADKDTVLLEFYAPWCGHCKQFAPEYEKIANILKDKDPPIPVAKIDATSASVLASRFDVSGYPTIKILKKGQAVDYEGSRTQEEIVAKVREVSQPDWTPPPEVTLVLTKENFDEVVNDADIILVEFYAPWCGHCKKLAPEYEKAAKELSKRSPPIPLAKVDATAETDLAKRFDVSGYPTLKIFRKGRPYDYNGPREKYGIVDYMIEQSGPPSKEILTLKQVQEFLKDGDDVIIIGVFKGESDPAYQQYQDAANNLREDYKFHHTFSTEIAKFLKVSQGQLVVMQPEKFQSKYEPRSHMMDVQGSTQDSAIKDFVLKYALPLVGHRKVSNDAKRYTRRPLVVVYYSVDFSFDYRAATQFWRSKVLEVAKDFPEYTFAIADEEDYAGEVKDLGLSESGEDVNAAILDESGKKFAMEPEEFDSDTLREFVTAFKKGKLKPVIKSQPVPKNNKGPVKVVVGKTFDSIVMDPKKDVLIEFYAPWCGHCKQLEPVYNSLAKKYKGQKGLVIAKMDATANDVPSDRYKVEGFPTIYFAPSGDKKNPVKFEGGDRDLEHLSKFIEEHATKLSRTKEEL

The target of a further assay is T3, ERp5 (Homo sapiens, UniProt Q15084).
T3 sequence (Q15084 20-440): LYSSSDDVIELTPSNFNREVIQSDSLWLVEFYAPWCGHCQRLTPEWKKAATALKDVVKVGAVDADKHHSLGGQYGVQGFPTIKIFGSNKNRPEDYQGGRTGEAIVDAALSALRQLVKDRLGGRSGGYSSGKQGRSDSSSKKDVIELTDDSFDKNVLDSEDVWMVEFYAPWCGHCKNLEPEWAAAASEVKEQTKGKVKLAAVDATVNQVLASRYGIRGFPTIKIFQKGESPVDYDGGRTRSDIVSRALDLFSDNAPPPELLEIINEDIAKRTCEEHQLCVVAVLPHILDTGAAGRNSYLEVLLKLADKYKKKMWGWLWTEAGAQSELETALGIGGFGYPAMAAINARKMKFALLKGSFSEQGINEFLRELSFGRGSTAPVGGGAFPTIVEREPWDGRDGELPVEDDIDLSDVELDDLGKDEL

Assay [1] has as its target protein disulfide isomerase (PDI) (Homo sapiens, UniProt P07237).

Sequence of protein disulfide isomerase (PDI) (P07237 18-508): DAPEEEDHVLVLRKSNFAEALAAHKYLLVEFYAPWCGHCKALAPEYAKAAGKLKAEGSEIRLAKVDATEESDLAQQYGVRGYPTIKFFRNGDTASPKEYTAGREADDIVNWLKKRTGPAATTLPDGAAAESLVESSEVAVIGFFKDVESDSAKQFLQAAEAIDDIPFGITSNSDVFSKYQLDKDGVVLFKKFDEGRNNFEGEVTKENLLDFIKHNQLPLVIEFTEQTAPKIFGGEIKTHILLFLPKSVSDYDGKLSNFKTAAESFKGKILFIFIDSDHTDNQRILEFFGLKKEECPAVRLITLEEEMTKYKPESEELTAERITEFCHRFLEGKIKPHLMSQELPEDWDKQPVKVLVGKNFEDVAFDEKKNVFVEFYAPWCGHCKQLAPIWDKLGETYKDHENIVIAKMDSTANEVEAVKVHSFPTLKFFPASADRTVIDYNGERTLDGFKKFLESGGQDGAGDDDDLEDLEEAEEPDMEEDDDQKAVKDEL

Broadly, the IC50 is the point on the concentration scale where inhibition reaches its midpoint. On to `COc1cc(/C=C/[N+](=O)[O-])ccc1OC(=O)c1cccc(Cl)c1Cl` [HPW-RX40, 2-Methoxy-4-[(E)-2-nitrovinyl]phenyl 2,3-dichlorobenzoate], for which the IC50 was 4.3 µM against ERp57, 18.8 µM on ERp72, 2.6 µM at ERp5 and 1.45 µM in assay [1].
